Experimental data reported in US10323017B2, “Antioxidants and methods to maximize performance” (University of Ottawa, priority 2015, dated 2019).

Experiments:
[1] = Hexadecane autoxidation at 160° C. (hydroperoxide formation), stirred flow reactor, initiated by tetralin hydroperoxide; conditions: for effect of added palmitic acid on inhibitory activity: 1 mM palmitic acid; for effect of added base 2,4,6-tri-tert-butylpyridine on inhibition of autoxidation: TTBP 1 mM vs. no base
Procedure: To evaluate the effect of an added sacrificial base on the high-temperature radical-trapping activity of antioxidants, autoxidations of n-hexadecane were carried out at 160° C. in a stirred flow reactor in the absence of or presence of a base, where a constant positive pressure of O2 was used to stir the medium and prevent mass transfer from becoming rate limiting (Igarashi, J., et al., J. Am. Chem. Soc. 1992, 114, 7727; Jensen, R.; et al., J. Am. Chem. Soc. 1979, 101, 7574). Tetralin hydroperoxide (10 mM) was used as a radical initiator since inhibited autoxidations in the absence of an initiator were very slow. At regular intervals, aliquots of the reaction mixture were removed, cooled and the concentration of hydroperoxide products determined by reaction with a developed fluorogenic phosphine (Hanthorn, J. J., et al., Chem. Commun. 2012, 48, 10141). Autoxidations were followed for the first 2% of the reaction, based on hydroperoxide formation, since beyond ca. 3% conversion, the hydroperoxide yield begins to decrease and highly complex mixtures of ketones, alcohols, carboxylic acids and esters arise.
n-Hexadecane (100 mL) was thoroughly degassed with argon and heated to 160° C. while argon was continuously bubbled through the liquid. […] For those experiment where acid or base was present, as noted in the figure captions, they were also added at this point. Aliquots (0.5 mL) were removed every 5 minutes, and allowed to cool to room temperature for analysis. Four duplicates (30 μL) of each sample were loaded into separate wells of a 96-well microplate and the automated reagent dispenser of the microplate reader was used to dilute each sample with tert-amyl alcohol (200 μL) and a solution of fluorogenic phosphine dye solution (20 μL of a 250 μM stock solution in acetonitrile) immediately before reading. The plate was stirred for 8 seconds, allowed to rest for 2 more seconds, and the fluorescence of each well was measured every second for 60 seconds (absorption at 340; emission at 425). The concentration of hydroperoxide was determined from the rate of phosphine oxidation using the rate constant for the reaction of the dye with secondary hydroperoxides in tert-amyl alcohol (k=1.2 M^−1s^−1) assuming pseudo-first-order kinetics. See sample data from an uninhibited autoxidation and one inhibited with diarylamine 4 alongside analogous experiments in the absence of the initiator tetralin hydroperoxide, or O2 (FIGS. 2C-E). Further results are presented in FIGS. 7 to 17 for hexadecane autoxidations and FIGS. 18 and 19 for tetralin autooxidations in the presence and absence of antioxidants, and at varying pH. FIGS. 14-17 correspond to hexadecane autoxidations carried out for diarylamine 4 in the presence of four different bases. FIGS. 7-13 correspond to hexadecane autoxidations carried out for compounds 1-7 and 20 in the presence and absence of a base, specifically, 2,4,6-tri-tert-butylpyridine. FIG. 5A corresponds to hexadecane autoxidations carried out for diarylamine 4 and 7 in the presence and absence of palmitic acid.

[2] = pKa measurement by titration of hydrochloride salts with NaOH; type: physicochemical; conditions: 4:1 (v:v) CH3CN:H2O solution of the hydrochloride salt; in 4:1 CH3CN:H2O; read-out: pKa of the conjugate acid
Procedure: Solutions of the hydrochloride salts of diarylamines 1-7 (1 mM) were made up in 4:1 CH3CN:H2O (3.0 mL) and the pH was measured using an Accument Electrode microbe referenced to Ag/Ag^+ as a function of added volumes of NaOH (10 mM). […] The titration curves for the diarylamines are shown in FIGS. 6A and 6B (averages of triplicate experiments), and the pKas reported in the manuscript correspond to the pH when 0.5 molar equivalents of NaOH were added to the solution.

[3] = Diarylamine stability to oxygen at 160° C. in n-hexadecane; type: physicochemical
Procedure: n-Hexadecane (100 mL) was thoroughly degassed with argon and then heated to 160° C. while argon was continuously bubbled through the liquid. Once the temperature stabilized, 2.5 mmol of diarylamines 1-7 were added to the solution and the flow of argon was replaced with 02. Aliquots (100 μL) were removed every 10 minutes, and added to 900 μL of a 2.2 mM solution of benzyl alcohol (internal standard) in 2% isopropanol/hexanes (HPLC grade). Samples were analysed using a Waters 2695 Alliance HPLC at a flow rate of 2.1 mL min^−1 (8.0% PrOH/hexanes) on a Sunfire Silica column (5 μm, 4.6×250 mm) and determined by their UV absorbance.

[4] = Peroxyl radical clock kinetics; conditions: double reciprocal plot
Procedure: Peroxyl radical clocking experiments (to determine the inhibition rate constant kinh) for compound 5 were carried out according to our previously published reports (see Hanthorn, J., et al. J. Org. Chem. 2012, 77, 6895). Inhibition rate constants of the other compounds are as reported previously. A double reciprocal plot was used to obtain km=2.4×10^7 M^−1s^−1 for compound 5.

[5] = Cyclic voltammetry (standard potential); type: physicochemical; conditions: 1 mM in CH3CN containing 0.1 M Bu4NPF6
Procedure: A standard potential for diarylamine 5 was measured from its cyclic voltammagram obtained using a BASi potentiostat (available from BASi Analytical Instruments, West La Fayette, Ind., USA) with a glassy carbon working electrode, a platinum counter electrode and a Ag/AgNO3 reference electrode. The diarylamine was dissolved in degassed acetonitrile containing 0.1 M tetrabutylammonium hexafluorophosphate as supporting electrolyte and the current recorded in the range of 0-1 V at a scan rate of 200 mV/s. Standard potentials of the other compounds are reported in previous publications. A cyclic voltammogram of diarylamine 5 (1 mM in CH3CN containing 0.1 M Bu4NPF6) vs. Ag/Ag^+ gave E^0=0.84 V vs. NHE.

[6] = Tetralin autoxidation at 70° C. initiated by azobis(α-tetralin); conditions: hexanoic acid 50 μM, antioxidant 2 μM
Procedure: Fresh tetralin was prepared by passing it through a column of silica. Tetralin (1.0 mL) was added to a glass vial, followed by chlorobenzene (1.0 mL). A magnetic Teflon-coated stir bar was added, and the vial was capped with a rubber septum. The vial was then placed in a heating block at 70° C. for 5 minutes. Antioxidant (4, 7) (0.002 mmol) were added. For those experiment where acid was present, as noted in the figure captions, hexanoic acid (0.050 mmol) was also added at this point. Azobis(α-tetralin) (0.1 mmol) was added as the initiator. The solution was stirred for 30 s and the first sample was taken. 100 μL samples were taken at regular intervals and added to 900 μL of a solution containing 2.2 mM benzyl alcohol, 10 mM butylated-hydroxytoluene, and 10 mM triphenylphosphine in 2% isopropanol/hexanes (HPLC grade). Samples were analysed using a Waters 2695 Alliance HPLC (2.0% iPrOH/hexanes, 1.6 ml min^−1; 10 min; Sunfire Silica column (5 μm, 4.6×250 mm)) and analysed by UV absorbance.

[7] = TTBP 1 mM, 40 μM antioxidant, 160° C.

Compound | inhibition of autoxidation in the presence of added base, compared with 7 [1, 7] | pKa [2] | effect of added palmitic acid on inhibitory activity ([1]; 40 μM antioxidant, 160° C.) | effect of added base 2,4,6-tri-tert-butylpyridine on inhibition of autoxidation ([1]; 40 μM antioxidant, 160° C.) | also measured
CCCCN(CCCC)c1ncc(Nc2cnc(N(CCCC)CCCC)nc2)cn1 [Compound 2, N^2,N^2-Dibutyl-N^5-(2-(dibutylamino)pyrimidin-5-yl)pyrimidine-2,5-diamine] | particularly good | 8.8 ± 0.1 |  |  | 
CCCCCCN(CCCCCC)c1ccc(Nc2ccccc2)cn1 [Compound 3, N^2,N^2-Dihexyl-N^5-phenylpyridine-2,5-diamine] | superior to 7 | 8.4 ± 0.1 |  |  | stability to O2 [3]: relatively unstable
CCCCCCN(CCCCCC)c1ncc(Nc2ccccc2)cn1 [Compound 4, N^2,N^2-Dihexyl-N^5-phenylpyrimidine-2,5-diamine] | particularly good | 8.2 ± 0.2 | disrupt the inhibitory activity | unprecedented inhibited period | difference in Δt2% (delay to reach [ROOH]=2%) relative to 7 ([1]; 40 μM antioxidant, TTBP 1 mM, 160° C.): 12.5 fold; effect of other bases on activity ([1]; cesium carbonate, potassium carbonate, or Primene 81-R (1 mM), 160° C.): rescued
CCCCCCc1ncc(Nc2cnc(N(CCCC)CCCC)nc2)cn1 [Compound 5, N^2,N^2-Dibutyl-N^5-(2-hexylpyrimidin-5-yl)pyrimidine-2,5-diamine] | particularly good | 8.3 ± 0.1 |  |  | inhibition rate constant kinh (printed km) [4]: 2.4e+07 M⁻¹ s⁻¹; standard potential E^0 [5]: 0.84 V vs. NHE
c1ccc(Nc2ccccc2)cc1 [Compound 7, reference compound] |  | 4.6 ± 0.3 | unchanged | no effect | effect of added base 2,4,6-tri-tert-butylpyridine on inhibition of autoxidation ([1]; 40 μM antioxidant, 160° C., listed as diphenylamine): did not impact the reactivity; effect of added acid on antioxidant activity [6]: does not affect the activity
CCCCCCCCN(CCCCCCCC)c1ncc(Nc2ccc(C(C)(C)C)cc2)cn1 [Compound 20, N^5-(4-(tert-butyl)phenyl)-N^2,N^2-dioctylpyrimidine-2,5-diamine] |  |  |  |  | stability and reactivity compared with compound 4 ([1]; 40 μM, with and without TTBP 1 mM, 160° C. (FIG. 9)): slightly increased stability and reactivity
